What was measured:
Type in all cases: biochemical
[1] = target: T1, Lipase from Candida antarctica (Type B) (Moesziomyces antarcticus, UniProt P41365); experiment: Enantioselective acylation of R,S-1-phenylethanol in ionic liquids; conditions: 24° C., 3-4 days
Protocol: (§1) 4.4 ml of an ionic liquid in accordance with Table 3 or tert-butylmethyl ether are mixed with 122 μl of vinyl acetate and 54 μl of 1-phenyl ethanol so that a substrate solution with approximately 0.1 mol/l of 1-phenyl ethanol and 0.3 mol/l of vinyl acetate is obtained. Each 1 mg of lyophilised lipase (>120 U/mg) is mixed with 0.4 ml of substrate solution, thoroughly mixed and incubated at 24° C. for 3-4 days, shaking slightly.
(§2) This hexane/isopropanol extract is used to determine the concentrations and enantiomer ratios of 1-phenyl ethanol and 1-phenylethyl acetate using HPLC. The conversion and the enantiomer excess were calculated from these concentrations (see Table 3).

[2] = system: Lipase from Candida antarctica (Type A); experiment: Enantioselective acylation of R,S-1-phenyl ethanol in ionic liquids
Protocol: as §1, §2

[3] = system: Lipase from Alcaligines sp.; experiment: as above
Protocol: as §1, §2

[4] = system: Lipase from Pseudomonas sp.; experiment: as above; set-up: key: (+) good to better; (±) the same
Protocol: as §1
as §2, with “For further processing 100 μl of the reaction formulation is mixed with 1 ml of n-hexane/Isopropanol (97.5/2.5 v/v) and mixed thoroughly. This” for “This”
Each 3 mg of lyophilised lipase (400 U/mg) is mixed with 0.4 ml of a substrate solution as in Example 3. The further procedure corresponds to that described in Example 3.

[5] = target: T1, Lipase from Candida antarctica (Type B); experiment: Recycling of the lipase in ionic liquid by distillation; conditions: 40 min at 40° C.; distillation 85° C., 0.06 mbar
Protocol: 600 mg of lyophilised lipase (approx. 10 U/mg) is mixed with 4 ml of ionic liquid (BMIm^+(CF3SO2)2N^−), 1.2 ml of vinyl acetate and 0.7 ml 1-phenyl ethanol and thoroughly mixed. The reaction mixture is incubated for 40 min at 40° C.
The non-converted educts and the reaction product […] is then distilled off (85° C., 0.06 mbar).
The enzyme/ionic liquid mixture is cooled, re-mixed with 1.2 ml of vinyl acetate and 0.7 ml of 1-phenyl ethanol and again incubated for 40 min at 40° C.

[6] = target: T2, Formate dehydrogenase from Candida boidinii (FDH) (Candida boidinii, UniProt O13437); experiment: NAD reduction by formate dehydrogenase; enzyme activity with buffer replaced by ionic liquid; set-up: key: (+) good to better; (±) the same; conditions: 25° C., pH 7
T2 sequence (O13437 1-364): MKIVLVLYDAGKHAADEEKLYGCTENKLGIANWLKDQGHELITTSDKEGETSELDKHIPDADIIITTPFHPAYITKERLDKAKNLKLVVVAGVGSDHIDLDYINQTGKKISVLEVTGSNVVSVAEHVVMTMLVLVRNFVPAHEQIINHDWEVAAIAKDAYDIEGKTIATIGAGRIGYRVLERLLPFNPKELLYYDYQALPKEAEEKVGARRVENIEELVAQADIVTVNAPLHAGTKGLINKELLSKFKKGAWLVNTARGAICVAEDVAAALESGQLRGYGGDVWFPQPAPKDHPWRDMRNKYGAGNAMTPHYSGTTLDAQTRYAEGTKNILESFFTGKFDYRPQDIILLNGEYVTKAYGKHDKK
Protocol: The FDH-catalysed oxidation of formic acid to carbon dioxide by the reduction of nicotinamide adenine dinucleotide (NAD^+ to NADH+H^+) is used as the test reaction to determine the enzyme activity. In the enzyme assay the increase in NADH with time at 25° C. is detected photometrically at a wavelength of 340 nm.
Composition of the enzyme assay: 1 ml buffer solution (50 mM triethanolamine hydrochloride, 1 mM dithiothreitol, hydrochloric acid) pH 7 is mixed with 0.1 ml of aqueous sodium formate solution (2.4 M) and 0.1 ml of enzyme solution (0.7 mg/ml, 8.4 U). The enzyme solution already contains the cofactor NAD (6 mM).

T1 sequence (P41365 26-342): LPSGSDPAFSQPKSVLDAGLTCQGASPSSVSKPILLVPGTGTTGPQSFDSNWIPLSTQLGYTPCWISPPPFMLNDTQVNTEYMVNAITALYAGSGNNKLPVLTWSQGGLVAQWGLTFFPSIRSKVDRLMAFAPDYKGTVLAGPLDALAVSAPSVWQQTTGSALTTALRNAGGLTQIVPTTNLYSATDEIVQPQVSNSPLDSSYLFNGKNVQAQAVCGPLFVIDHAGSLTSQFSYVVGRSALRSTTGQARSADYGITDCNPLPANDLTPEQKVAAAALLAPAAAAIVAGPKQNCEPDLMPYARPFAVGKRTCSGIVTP

| Molecule | Conversion compared to the standard reaction in tert-butylmethyl ether [1] | Enantiomer excess compared to the standard reaction in tert-butylmethyl ether [1] | Conversion compared to the standard reaction in tert-butylmethyl ether [2] | Enantiomer excess compared to the standard reaction in tert-butylmethyl ether [2] | Conversion compared to the standard reaction in tert-butylmethyl ether [3] | Enantiomer excess compared to the standard reaction in tert-butylmethyl ether [3] | Conversion compared to the standard reaction in tert-butylmethyl ether [4] | Enantiomer excess compared to the standard reaction in tert-butylmethyl ether [4] | lipase activity on repeated incubation and distilling off [5] | enzyme activity compared with the standard reaction in the buffer solution ([6]; 25 vol % ionic liquid) | enzyme activity compared with the standard reaction in the buffer solution ([6]; 50 vol % ionic liquid) | enzyme activity compared with the standard reaction in the buffer solution ([6]; 75 vol % ionic liquid) |
| --- | --- | --- | --- | --- | --- | --- | --- | --- | --- | --- | --- | --- |
| CCCCCCn1cc[n+](C)c1.F[B-](F)(F)F [HMIm^+ BF4^−, Hexyl-methyl-imidazolium BF4^−] | ± | + | + | + | ± | + |  |  |  |  |  |  |
| CCCCCCCCC[n+]1ccn(C)c1.F[P-](F)(F)(F)(F)F [NMIm^+ PF6^−, Nonyl-methyl-imidazolium PF6^−] | ± | + | + | + |  |  |  |  |  |  |  |  |
| CCCCn1cc[n+](C)c1.O=S(=O)([O-])C(F)(F)F [BMIm^+ CF3SO3^−, Butyl-methyl-imidazolium-trifluoro methane sulphonate (=triflate)] | + | + | + | + | ± | + | + | + |  |  |  |  |
| CCCCn1cc[n+](C)c1.O=S(=O)([N-]S(=O)(=O)C(F)(F)F)C(F)(F)F [BMIm^+ (CF3SO2)2N^−] | + | + |  |  |  |  | + | + | without the lipase activity diminishing |  |  |  |
| Methyl-methyl-imidazolium-methyl sulphate [MMIm^+ MeSO4^−] |  |  |  |  |  |  |  |  |  | ± | + | + |
| CCCCn1cc[n+](C)c1.F[P-](F)(F)(F)(F)F [BMIm^+ PF6^−, Butyl-methyl-imidazolium PF6^−] |  |  | + | + | ± | + |  |  |  |  |  |  |
| CCCCCCCCn1cc[n+](C)c1.F[B-](F)(F)F [OMIm^+ BF4^−, Octyl-methyl-imidazolium BF4^−] | + | + | + | ± | ± | + |  |  |  |  |  |  |
| CCCC[n+]1ccc(C)cc1.F[B-](F)(F)F [4-MBP^+ BF4^−, 4-methyl-butyl-pyridinium BF4^−] | + | + |  |  | ± | + | ± | + |  |  |  |  |
| CCCCn1cc[n+](C)c1.F[B-](F)(F)F [BMIm^+ BF4^−, Butyl-methyl-imidazolium BF4^−] | + | + | ± | + | ± | + |  |  |  |  |  |  |
